What was measured:
[1] = biological target: T1, Cytochrome P450 1B1 (Homo sapiens, UniProt Q16678); test: Inhibition of CYP1B1 in human MCF7 cells assessed as reduction in DMBA-induced CYP1B1-mediated EROD activity by EROD assay; assay type: cell-based
T1 sequence (Q16678 whole entry): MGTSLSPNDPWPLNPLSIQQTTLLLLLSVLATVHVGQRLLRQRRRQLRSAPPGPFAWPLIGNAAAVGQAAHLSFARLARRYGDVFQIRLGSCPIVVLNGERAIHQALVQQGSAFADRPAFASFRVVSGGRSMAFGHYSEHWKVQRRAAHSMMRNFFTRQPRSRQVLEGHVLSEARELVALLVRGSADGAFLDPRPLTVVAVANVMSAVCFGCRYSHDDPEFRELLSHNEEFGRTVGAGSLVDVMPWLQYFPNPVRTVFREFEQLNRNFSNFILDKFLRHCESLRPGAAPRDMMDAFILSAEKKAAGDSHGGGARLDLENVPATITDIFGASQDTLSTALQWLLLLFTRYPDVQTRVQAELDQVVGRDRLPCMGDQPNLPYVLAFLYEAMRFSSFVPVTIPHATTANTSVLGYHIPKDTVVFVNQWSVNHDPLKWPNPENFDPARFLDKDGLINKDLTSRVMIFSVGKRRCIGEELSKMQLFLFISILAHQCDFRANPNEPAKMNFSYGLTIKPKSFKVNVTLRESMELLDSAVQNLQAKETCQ

[2] = biological target: T1, Cytochrome P450 1B1; test: Inhibition of CYP1B1 in human MCF7 cells assessed as reduction in TCDD-induced CYP1B1-mediated EROD activity by EROD assay; assay type: cell-based
[3] = biological target: T1, Cytochrome P450 1B1; test: Inhibition of human CYP1B1 using 7-Ethoxyresorufin as substrate after 30 mins in presence of NADP+ by EROD assay
[4] = biological target: T2, Cytochrome P450 1A1 (Homo sapiens, UniProt P04798); test: Inhibition of human CYP1A1 by EROD assay; assay type: ADME
T2 sequence (P04798 whole entry): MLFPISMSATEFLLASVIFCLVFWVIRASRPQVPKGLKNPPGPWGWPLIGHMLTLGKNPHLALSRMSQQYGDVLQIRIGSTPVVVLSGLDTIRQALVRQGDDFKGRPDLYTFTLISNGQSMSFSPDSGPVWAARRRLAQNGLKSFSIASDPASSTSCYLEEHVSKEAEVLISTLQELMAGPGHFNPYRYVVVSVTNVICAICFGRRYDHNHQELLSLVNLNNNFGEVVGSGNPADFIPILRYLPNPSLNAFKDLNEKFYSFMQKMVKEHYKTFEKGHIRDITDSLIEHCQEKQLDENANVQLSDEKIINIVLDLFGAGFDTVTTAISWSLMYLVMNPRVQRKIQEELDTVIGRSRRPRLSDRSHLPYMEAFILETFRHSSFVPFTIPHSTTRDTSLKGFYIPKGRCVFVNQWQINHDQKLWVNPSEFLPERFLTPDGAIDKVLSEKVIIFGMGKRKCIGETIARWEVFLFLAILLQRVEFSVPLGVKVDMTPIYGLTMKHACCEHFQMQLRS

[5] = biological target: T3, Cytochrome P450 1A2 (Homo sapiens, UniProt P05177); test: Inhibition of human CYP1A2 using 7-Ethoxyresorufin as substrate after 50 mins in presence of NADP+ by EROD assay; assay type: ADME
T3 sequence (P05177 whole entry): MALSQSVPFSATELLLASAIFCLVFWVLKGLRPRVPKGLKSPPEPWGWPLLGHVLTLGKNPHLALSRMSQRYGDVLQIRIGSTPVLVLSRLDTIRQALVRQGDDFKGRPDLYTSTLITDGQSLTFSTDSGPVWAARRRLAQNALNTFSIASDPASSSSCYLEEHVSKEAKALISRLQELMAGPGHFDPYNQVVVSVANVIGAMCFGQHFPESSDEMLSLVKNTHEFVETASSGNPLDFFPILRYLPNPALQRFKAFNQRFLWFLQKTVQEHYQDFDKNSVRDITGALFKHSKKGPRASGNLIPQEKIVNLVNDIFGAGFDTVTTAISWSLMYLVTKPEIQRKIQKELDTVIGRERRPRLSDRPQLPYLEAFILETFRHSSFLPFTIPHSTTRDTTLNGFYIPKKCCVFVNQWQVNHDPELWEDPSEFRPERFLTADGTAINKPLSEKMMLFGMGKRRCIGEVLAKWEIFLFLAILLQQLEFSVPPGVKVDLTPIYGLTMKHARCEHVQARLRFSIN

[6] = biological target: T2, Cytochrome P450 1A1; test: Inhibition of human CYP1A1 using 7-Ethoxyresorufin as substrate after 15 mins in presence of NADP+ by EROD assay; assay type: ADME
[7] = biological target: T2, Cytochrome P450 1A1; test: Inhibition of […] CYP1A1 expressed in Escherichia coli DH5alpha cell membranes coexpressing human NADPH-cytochrome P450 reductase using 7-Ethoxyresorufin as substrate preincubated for 3 mins followed by NADPH addition measured after 10 mins by EROD assay; assay type: ADME
[8] = biological target: T1, Cytochrome P450 1B1; test: Inhibition of CYP1B1 in human HepG2 cells; assay type: cell-based
[9] = biological target: T1, Cytochrome P450 1B1; test: Inhibition of human CYP1B1 expressed in Escherichia coli DH5alpha cell membranes coexpressing human NADPH-cytochrome P450 reductase using 7-Ethoxyresorufin as substrate by EROD assay
[10] = biological target: T3, Cytochrome P450 1A2; test: Inhibition of […] CYP1A2 expressed in Escherichia coli DH5alpha cell membranes coexpressing human NADPH-cytochrome P450 reductase using 7-Ethoxyresorufin as substrate preincubated for 3 mins followed by NADPH addition measured after 10 mins by EROD assay; assay type: ADME
[11] = biological target: T1, Cytochrome P450 1B1; test: Inhibition of […] CYP1B1 expressed in Escherichia coli DH5alpha cell membranes coexpressing human NADPH-cytochrome P450 reductase using 7-Ethoxyresorufin as substrate preincubated for 3 mins followed by NADPH addition measured after 10 mins by EROD assay
[12] = biological target: T1, Cytochrome P450 1B1
Description: Inhibition of human CYP1B1 by EROD assay

[13] = biological target: T2, Cytochrome P450 1A1; test: Inhibition of human CYP1A1 using ethoxyresorufin as substrate by MROD assay; assay type: ADME
[14] = biological target: T2, Cytochrome P450 1A1; test: Inhibition of human CYP1A1 using ethoxyresorufin as substrate by EROD assay; assay type: ADME
[15] = biological target: T1, Cytochrome P450 1B1; test: Mixed type inhibition of human CYP1B1 by EROD assay

Structure (SMILES)	INH [7] [µM]	INH [10] [µM]	INH [11] [µM]	other results
C[C@]12CCCCC1=CC[C@@H]1[C@@H]2CC[C@]2(C)C(=O)[C@H](F)C[C@@H]12	–	–	–	IC50 [1]: 500 nM; IC50 [2]: 2500 nM
COc1ccc(-c2cc(=O)c3cc(OC)c4cccc(OC)c4c3[nH]2)cc1	–	–	–	IC50 [3]: 4.1 nM
COc1ccc2c(c(OC)cc3c(=O)cc(-c4ccc(F)cc4)oc32)c1OC	–	–	–	IC50 [4]: 1 nM
COc1cc2c(=O)cc(-c3cccc(Br)c3)[nH]c2c2c(OC)cccc12	–	–	–	IC50 [3]: 3.6 nM
COc1cc2c(=O)cc(-c3ccc(F)cc3)[nH]c2c2c(OC)cccc12	–	–	–	IC50 [3]: 3.9 nM; IC50 [5]: 190 nM; IC50 [6]: 10.5 nM
O=c1cc(-c2ccc(O)cc2)oc2cc(O)cc(O)c12 [APIGENIN]	4.1	–	–	–
COc1ccc2cc3[n+](cc2c1OC)CCc1cc2c(cc1-3)OCO2 [BERBERINE]	–	–	–	IC50 [8]: 2500 nM; IC50 [9]: 94 nM
O=c1cc(-c2ccccc2)oc2cc(O)cc(O)c12 [CHRYSIN]	6.2	0.42	0.28	–
COc1cc(-c2oc3cc(O)cc(O)c3c(=O)c2O)ccc1O [ISORHAMNETIN]	25	137	30.1	–
O=c1c(O)c(-c2ccc(O)cc2)oc2cc(O)cc(O)c12 [KAEMPFEROL]	52	–	–	–
O=c1cc(-c2ccc(O)c(O)c2)oc2cc(O)cc(O)c12 [LUTEOLIN]	1.2	8.9	0.36	–
O=c1c(O)c(-c2ccc(O)c(O)c2)oc2cc(O)cc(O)c12 [QUERCETIN]	77	418	23	–
Oc1ccc(/C=C/c2cc(O)cc(O)c2)cc1 [RESVERATROL]	–	–	–	IC50 [12]: 1400 nM; IC50 [13]: 11000 nM; IC50 [14]: 23000 nM; Ki [15]: 750 nM

Source: ChEMBL document CHEMBL4330064, “Phytoestrogens and their synthetic analogues as substrate mimic inhibitors of CYP1B1” (Eur J Med Chem, 2019)
